US12285407B2, “Bis-indolylmethane derivatives and uses thereof” (The University of The West Indies, priority 2018, dated 2025)
Converted amounts (≈) assume the structure as drawn. Read-outs that look alike come from different tables or passages of the source.

Experiments:
Enterococcus faecalis = test: Adjuvant broth microdilution (antibiotic MIC with SP-BIM at 50 μg/mL); format: cell-based; conditions: antibiotic alone
Klebsiella pneumoniae = test: as above; format: cell-based; conditions: Klebsiella pneumonia; antibiotic alone, no SP-BIM
Enterobacter cloacae = test: as above; format: cell-based; conditions: antibiotic alone
Pseudomonas aeruginosa [1] = test: Rescue concentrations of SP-BIM that reactivate antibiotic; format: cell-based; conditions: P. aeruginosa; for MIC: Pseudomonas aeruginosa, agent alone, read-out: MIC (single agent)
MRSA = test: Adjuvant broth microdilution (antibiotic MIC with SP-BIM at 50 μg/mL); format: cell-based, Staphylococcus aureus; conditions: antibiotic alone, Table 8 (series SP-BIMs 21-29)
Escherichia coli O157:H7 = format: cell-based; conditions: antibiotic alone, no SP-BIM
Pseudomonas aeruginosa [2] = test: Adjuvant broth microdilution (antibiotic MIC with SP-BIM at 50 μg/mL); format: cell-based; conditions: antibiotic alone
clinical strains of MRSA = test: Kirby Bauer disc diffusion susceptibility profile; format: cell-based, Staphylococcus aureus; conditions: for Zone of clearance: 35° C., 24 hours, average n=3; for Interpretive standard (resistant/susceptible): zones vs EUCAST breakpoints (Table 30)
Bacillus cereus = test: Adjuvant broth microdilution (antibiotic MIC with SP-BIM at 50 μg/mL); format: cell-based; conditions: antibiotic alone, Table 9
[3] = tested on: Salmonella typhimurium ATCC 14028; test: Broth microdilution MIC of SP-BIMs; format: cell-based; conditions: Salmonella enterica, read-out: MIC Salmonella tvpkimurium ATCC 14028
From the text: (§1) Reference microorganisms used in this study included: Bacillus cereus (American Type Culture Collection (ATCC) No. 14579), Streptococcus pyogenes (ATCC No. 19615), Staphylococcus aureus (ATCC No. 12600), Enterococcus faecium (ATCC No. 19434), Corynebacterium diphtheriae (ATCC No. 27010), Escherichia coli (ATCC No. 35218), Salmonella typhimurium (ATCC No. 14028), Pseudomonas aeruginosa (ATCC No. 27853), Klebsiella pneumoniae (ATCC No. 49472), and Candida albicans (ATCC No. 22972).
Prior to each experiment, cultures were streaked onto clean BHI agar plates and incubated at 35° C. for 24 hours. Colonies of the respective cultures were selected and inoculated in phosphate buffer saline (pH 7.5) to a 0.5 McFarland turbidity standard (equivalent to 10^8 CFU mL^−1). The bacterial suspension was then diluted 1:100 in cation adjusted Mueller Hinton Broth (ca-MHB) (Oxoid Ltd, Basingstoke, Hampshire, England).
Stock solutions (50 mg mL^−1) of the SP-BIM test compounds were prepared in DMSO and stored at 4° C. Working preparations of each compound was made up to 1 mg/mL in sterile deionized water with a final DMSO concentration of 10%.
To assess the antibiotic properties of the library of SP-BIMs, the broth microdilution assay was performed in 96-well microplates according to the Clinical and Laboratory Standards Institute 2014 Guidelines (CLSI 2014). The broth microdilution assay was used to determine the minimum inhibitory concentration (MIC). […] Bacterial cells (˜10^6 CFU mL^−1) were inoculated into cation adjusted-Mueller Hinton broth containing the test compound in a twofold serial dilution ranging between 250 μg mL^−1 and 0.02 μg mL^−1. Plates were incubated at 35° C. for 18 hours after which 50 μL of 5% resazurin solution was added to each well. Resazurin is a blue dye which, upon reduction by living cells, turns to a pink resorufin product. Plates were shaken for 1 hour after the addition of the dye. The MIC was recorded as the well with the lowest concentration of test compound where no color change was observed.

[4] = tested on: Streptococcus pyogenes ATCC 19615; test: Broth microdilution MIC of SP-BIMs; format: cell-based; conditions: ATCC19615, SP-BIM alone, read-out: MIC Streptococcus pyogenes ATCC 19615
Streptococcus pneumoniae = test: Adjuvant broth microdilution (antibiotic MIC with SP-BIM at 50 μg/mL); format: cell-based; conditions: Streptococcus pneumoniae, Streptococcus pneumonia, SP-BIM at 50 μg mL^−1
[5] = tested on: Escherichia coli ATCC 35218; test: Broth microdilution MIC of SP-BIMs; format: cell-based; conditions: ATCC35218, SP-BIM alone, read-out: MIC Escherichia coli ATCC 35218
[6] = tested on: Staphylococcus aureus ATCC 12600; test: Broth microdilution MIC of SP-BIMs; format: cell-based; conditions: ATCC12600, SP-BIM alone, read-out: MIC Staphylococcus aureus ATCC 12600
[7] = tested on: Enterococcus faecium ATCC 19434; test: Broth microdilution MIC of SP-BIMs; format: cell-based; conditions: ATCC19434, SP-BIM alone, read-out: MIC Enterococcus faecium ATCC 19434
[8] = tested on: Klebsiella pneumoniae ATCC 49472; test: Broth microdilution MIC of SP-BIMs; format: cell-based; conditions: ATCC49472, SP-BIM alone, read-out: MIC Klebisella pneumoniae ATCC 49472
[9] = tested on: Bacillus cereus ATCC 14579; test: Broth microdilution MIC of SP-BIMs; format: cell-based; conditions: ATCC14579, SP-BIM alone, read-out: MIC Bacillus cereus ATCC 14579
[10] = tested on: panel of ATCC reference pathogen strains; test: Broth microdilution MIC of SP-BIMs, panel summary in text; format: cell-based
From the text: as §1
Prior to each experiment, cultures were streaked onto clean BHI agar plates and incubated at 35° C. for 24 hours. Colonies of the respective cultures were selected and inoculated in phosphate buffer saline (pH 7.5) to a 0.5 McFarland turbidity standard (equivalent to 10^8 CFU mL^−1). […]
To assess the antibiotic properties of the library of SP-BIMs, the broth microdilution assay was performed in 96-well microplates according to the Clinical and Laboratory Standards Institute 2014 Guidelines (CLSI 2014). […] The MIC was recorded as the well with the lowest concentration of test compound where no color change was observed.
The antimicrobial activity of the library of substituted [bis(indol-3yl)]methanes was assessed against a panel of ATCC reference pathogen strains of clinical relevance. […]

[11] = tested on: Candida albicans ATCC 22972; test: Broth microdilution MIC of SP-BIMs; format: cell-based; conditions: ATCC22972, SP-BIM alone, read-out: MIC Candida albicans ATCC 22972
[12] = tested on: Pseudomonas aeruginosa ATCC 27853; test: Broth microdilution MIC of SP-BIMs; format: cell-based; conditions: ATCC27853, SP-BIM alone, read-out: MIC Pseudomonas aeruginosa ATCC 27853
[13] = tested on: Corynebacterium diphtheriae ATCC 27010; test: Broth microdilution MIC of SP-BIMs; format: cell-based; conditions: ATCC27010, SP-BIM alone, read-out: MIC Corynebacterium diphtheriae ATCC 27010
[14] = read-out: MIC of Kanamvcin with SP-BIM
[15] = read-out: MIC of Vancomvcin with SP-BIM

Q: O=C(N[C@H](CO)[C@H](O)c1ccc([N+](=O)[O-])cc1)C(Cl)Cl [Chloramphenicol, chloramphenicol] was tested. Which “MIC of antibiotic, No Compound” value (Enterococcus faecalis) did it give?
A: 250 µg/mL

Q: And the “MIC of antibiotic, No Compound” value (Klebsiella pneumoniae)?
A: >250 µg/mL

Q: What about the “MIC of antibiotic, No Compound” value (Enterobacter cloacae) of the same molecule?
A: 16 µg/mL

Q: What about the MIC (Pseudomonas aeruginosa [1]) of the same molecule?
A: 250 µg/mL (≈ 774 µM)

Q: And the “MIC of antibiotic, No Compound” value (MRSA)?
A: <0.5 µg/mL

Q: What about the “MIC of antibiotic, No Compound” value (Escherichia coli O157:H7) of the same molecule?
A: 8 µg/mL

Q: And the “MIC of antibiotic, No Compound” value (Pseudomonas aeruginosa [2])?
A: 250 µg/mL

Q: And the Zone of clearance (clinical strains of MRSA; MRSA strain 1594)?
A: 18.5 mm

Q: And the “Interpretive standard (resistant/susceptible)” value (clinical strains of MRSA; MRSA strain 1594)?
A: S

Q: What about the Zone of clearance (clinical strains of MRSA; MRSA strain 1621) of the same molecule?
A: 24.5 mm

Q: And the “Interpretive standard (resistant/susceptible)” value (clinical strains of MRSA; MRSA strain 1621)?
A: S

Q: And the Zone of clearance (clinical strains of MRSA; MRSA strain 5455)?
A: 22.0 mm

Q: And the “Interpretive standard (resistant/susceptible)” value (clinical strains of MRSA; MRSA strain 5455)?
A: S

Q: And the Zone of clearance (clinical strains of MRSA; MRSA strain 5872)?
A: 20.5 mm

Q: And the “Interpretive standard (resistant/susceptible)” value (clinical strains of MRSA; MRSA strain 5872)?
A: S

Q: What about the Zone of clearance (clinical strains of MRSA; MRSA strain 7153) of the same molecule?
A: 18.0 mm

Q: And the “Interpretive standard (resistant/susceptible)” value (clinical strains of MRSA; MRSA strain 7153)?
A: S

Q: And the Zone of clearance (clinical strains of MRSA; MRSA strain 7172)?
A: 19.5 mm

Q: What about the “Interpretive standard (resistant/susceptible)” value (clinical strains of MRSA; MRSA strain 7172) of the same molecule?
A: S

Q: And the Zone of clearance (clinical strains of MRSA; MRSA strain 7698)?
A: 16.5 mm

Q: What about the “Interpretive standard (resistant/susceptible)” value (clinical strains of MRSA; MRSA strain 7698) of the same molecule?
A: S

Q: And the Zone of clearance (clinical strains of MRSA; MRSA strain 10132)?
A: 21.5 mm

Q: And the “Interpretive standard (resistant/susceptible)” value (clinical strains of MRSA; MRSA strain 10132)?
A: S

Q: And the “MIC of antibiotic, No Compound” value (Bacillus cereus)?
A: 4 µg/mL

Q: c1ccc(C(c2c[nH]c3ccccc23)c2c[nH]c3ccccc23)cc1 [SP-BIM 1, bis(indol-3-yl)-phenylmethane] was tested. Which MIC [3] did it give?
A: 250 µg/mL

Q: And the MIC [4]?
A: 83 µg/mL

Q: And the MIC (Streptococcus pneumoniae; [14])?
A: 125 µg/mL

Q: What about the MIC (Streptococcus pneumoniae; [15]) of the same molecule?
A: 1 µg/mL

Q: And the MIC [5]?
A: > 250 µg/mL

Q: What about the MIC [6] of the same molecule?
A: > 250 µg/mL

Q: What about the MIC [7] of the same molecule?
A: 52 µg/mL

Q: And the MIC [8]?
A: > 250 µg/mL

Q: And the MIC [9]?
A: 83 µg/mL

Q: And the “antibacterial activity” value [10]?
A: displayed antibacterial activity, and only against Gram-positive bacteria

Q: And the MIC [11]?
A: 250 µg/mL

Q: And the MIC [12]?
A: 250 µg/mL

Q: And the MIC [13]?
A: 125 µg/mL

Q: Which MIC [3] does the source give for c1ccc2c(C(c3ncc[nH]3)c3c[nH]c4ccccc34)c[nH]c2c1 [SP-BIM 4, [bis(indol-3-yl)imidazol-2-yl]methane] here?
A: 250 µg/mL

Q: And the MIC [4]?
A: 104 µg/mL

Q: And the MIC (Streptococcus pneumoniae; [14])?
A: 125 µg/mL

Q: What about the MIC (Streptococcus pneumoniae; [15]) of the same molecule?
A: 1 µg/mL

Q: What about the MIC [5] of the same molecule?
A: > 250 µg/mL

Q: And the MIC [6]?
A: 166 µg/mL

Q: What about the MIC [7] of the same molecule?
A: 104 µg/mL

Q: What about the MIC [8] of the same molecule?
A: > 250 µg/mL

Q: And the MIC [9]?
A: 125 µg/mL

Q: What about the “antibacterial activity” value [10] of the same molecule?
A: displayed antibacterial activity, and only against Gram-positive bacteria

Q: And the MIC [11]?
A: 250 µg/mL

Q: What about the MIC [12] of the same molecule?
A: 250 µg/mL

Q: And the MIC [13]?
A: 166 µg/mL

Q: Oc1ccc2c(C(c3ccc(Br)cc3)c3c[nH]c4cc(O)ccc34)c[nH]c2c1 [SP-BIM 23, 3,3′-((4-bromophenyl)methylene)bis(1H-indol-6-ol)] was tested. Which “MIC of chloramphenicol in combination with 64 μg/mL SP-BIM 23” value (Pseudomonas aeruginosa [1]) did it give?
A: 4 µg/mL

Q: What about the MIC (Pseudomonas aeruginosa [1]) of the same molecule?
A: > 250 µg/mL
